pIC50: −log10 of the molar value. Entries after “also recorded” stand apart in the source; their conditions may differ.
What was measured:
BRN2 = target: T1, BRN2 (Homo sapiens, UniProt P20265); assay: BLI binding; conditions: result in words
T1 sequence (P20265 1-443): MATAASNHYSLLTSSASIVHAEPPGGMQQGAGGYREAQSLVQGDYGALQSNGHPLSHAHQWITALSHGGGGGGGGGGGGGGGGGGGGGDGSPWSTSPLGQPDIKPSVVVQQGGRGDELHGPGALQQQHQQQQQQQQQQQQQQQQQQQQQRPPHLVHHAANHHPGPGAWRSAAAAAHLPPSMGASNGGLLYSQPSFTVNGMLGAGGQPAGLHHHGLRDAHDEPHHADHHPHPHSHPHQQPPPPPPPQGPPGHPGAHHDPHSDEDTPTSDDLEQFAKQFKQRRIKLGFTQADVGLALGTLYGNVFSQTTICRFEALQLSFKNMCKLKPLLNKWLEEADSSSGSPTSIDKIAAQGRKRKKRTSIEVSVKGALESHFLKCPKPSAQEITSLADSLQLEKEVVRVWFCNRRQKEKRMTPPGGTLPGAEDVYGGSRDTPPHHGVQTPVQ

42D^ENZR cells = assay: Cell proliferation, BRN2 expressing 42D cells (crystal violet); format: cell-based; conditions: about 72 hours; for Growth Specificity: 42D (express BRN2) versus 16D (no BRN2) cells, result in words; for pIC50: 42D cells, proliferation, read-out: 42D IC50
Method: (§1) Step 3: Cell Proliferation
(§2) Plate 42DE^NZR (˜7000 cells per well) and 16D^CRPC (˜5000 cells per well) cells in 96 well plate with a volume of 100 μL per well. • 2. Next day 1 mL aliquots of media are combined with 3× the desired concentration of compounds. The aliquots are vortexed and 50 μL of each 3× concentration is added to the 100 μL of media in each well to give the ix desired concentration.
(§3) The following are the desired concentrations:
(§4) Approximately 72 hours later, 17 μL of 10% Glutaraldehyde is added to each well and plates are placed on a shaker for 20-30 minutes. • 4. Media is washed off the fixed cells by slow submersion in a container of water. Then the water is removed by tapping the plate upside down. • 5. 75 μL of Crystal Violet™ solution is added into the 96 well plates and placed on a shaker for ˜30 minutes. • 6. Media is washed off the fixed cells by repeated slow submersion in a container of water and the plates are allowed to dry over-night. • 7. Next day, 75 μL of Sorensen Solution is accurately pipetted into each well. The plates placed on a shaker for ˜30 minutes. • 8. Absorbance is measured in the plate at 590 nm.
There is a distinction in TABLES 1 and 2 difference between “Active” and “Specific” or “Specificity”.

[1] = Metabolic stability in liver microsomes (MLM); format: in vitro ADME, mice; conditions: 0.25 mg/mL protein; for half-life at 1 μM: mouse, liver microsomes, pH 7.4, 1 μM compound, read-out: T1/2 in mins (MLM); for Met Stab % (60 mins) MLM: percent remaining at 60 min, 1 μM compound, 1 mM NADPH
Method: Preparation of Potassium Phosphate Buffer, 50 mM (pH 7.4)
Potassium phosphate buffer (Kphos) was prepared by adding 0.647 g potassium phosphate monobasic (KH2PO4) and 3.527 g potassium phosphate dibasic (KH2PO4) to 400 mL of Milli-Q™ water. pH of the buffer was adjusted to 7.4 and volume was made up to 500 mL.
Preparation of Microsomes
Stock solutions of BRN2 inhibitors were prepared in DMSO at a concentration of 1 mM
Preparation of NADPH Solution
• Total Incubation volume: 100 μL • Compound concentration: 1 μM • Protein Concentration: 0.25 mg/mL • NADPH: 1 mM • Final DMSO contain: 0.1% • Number of replicates: 2 • Time points: 0, 5, 15, 30 and 60 min
From the above mix, 70 μL was added to individual wells of 96 well reaction plates and pre-incubated in a 37° C. water bath for 5 min. […] Reactions without NADPH and buffer controls (minus NADPH) at 0 min and 60 min were also incubated to rule out non-NADPH metabolism or chemical instability in the incubation buffer. All reactions were terminated using 100 μL of ice-cold acetonitrile containing internal standard at 0, 5, 15, 30 and 60 min.
Samples were monitored for parent compounds disappearance in MRM mode using LC-MS/MS.
The percent remaining of test compounds and positive control in each sample was determined by considering peak area ratio in the 0 minute sample as 100%. The Half-life of compounds in microsomes is calculated by formula: […]
In vitro intrinsic clearance (CL'int) (units in mL/min/kg) was calculated using the formula.
[formula] • For liver microsomes, scaling factor used was 45 mg microsomal protein per gm liver. • * Indicates liver weight (gm) which varies species wise. For mice the liver weights are 90 gm.

16D^CRPC cells = assay: Cell proliferation, 16D cells that do not express BRN2 (crystal violet); format: cell-based; conditions: for effect on 16D: result in words; for concentration above which 16D is affected: proliferation
Method: as §1, §2, §3
as §4, with “0, 10 nM, 100 nM, 500 nM, 1 μM, 2.5 μM, 5 μM, 10 μM, 15 μM, 20 μM, 30 μM. • 3. Approximately” for “Approximately”, “nm. Compounds that Show Specificity Towards 42DE^NZR Cells Vs 16D^CRPC Cells Progress to Step 4.” for “nm.”
(§5) In TABLES 1 and 2, in columns Met Stab % and T½, refers to compound's stability in MLM. There is a distinction in TABLES 1 and 2 difference between “Active” and “Specific” or “Specificity”. Some of the compounds were first tested to quantify inhibition of BRN2 transcriptional activity in a luciferase assay to determine BRN2 inhibition at 10 μM and 30 μM concentrations. […] Generally, compounds having low inhibitory activity were compounds with less than about ˜30% or activation at either concentration (i.e. 10 μM or 30 μM). Furthermore, some compounds that lacked specificity could also show off-target effects.

[2] = tested on: BRN2 transcriptional activity; assay: BRN2-luciferase reporter activity in 42D^ENZR cells; format: cell-based; conditions: 24 hours
Description: Step 1: Reporter Activity
Decreased expression of luciferase protein is validated via western blot to confirm downregulation and avoid false positive molecules that inhibit luciferase protein activity and not BRN2-drive luciferase expression. Molecules are prioritized by their inhibition potency to measure direct interaction with BRN2 in Step 2.
as §5

| SMILES | BLI binding (BRN2) | Growth Specificity (42D^ENZR cells) | pIC50 (42D^ENZR cells) | half-life at 1 μM [1] [min] | Met Stab % (60 mins) MLM [1] [%] | effect on 16D (16D^CRPC cells) | concentration above which 16D is affected (16D^CRPC cells) [µM] | inhibition at 10 µM [2] [%] | inhibition at 30 µM [2] [%] |
| --- | --- | --- | --- | --- | --- | --- | --- | --- | --- |
| Fc1ccc2c(c1)CC/C2=N/Nc1nc2ccccc2s1 [7-57] | Positive | Specific to 42D | 5.00 | 8 | 0 | no effect on 16D |  |  |  |
| Fc1cccc2nc(N/N=C3/CCc4ccccc43)sc12 [7-65] |  | Specific to 42D | 5.00 | 6 | 0 | no effect on 16D |  |  |  |
| c1ccc2sc(N/N=C3/CCc4ccncc43)nc2c1 [7-66] |  | Specific to 42D | 5.00 | 8 | 1 | no effect on 16D |  |  |  |
| O=C1/C(=N\Nc2nc3ccccc3s2)Cc2ccc(Cl)cc21 [7-72] |  | Specific to 42D at low doses |  | 17 | 8 |  | > 15 |  |  |
| CC(C)Oc1ccc2c(c1)C/C(=N/Nc1nc3ccccc3s1)C2=O [7-73, (Z)-2-(2-(benzo[d]thiazol-2-yl)hydrazineylidene)-5-isopropoxy-2,3-dihydro-1H-inden-1-one] | Positive binding | Specific to 42D at low doses |  | 26 | 19 |  | > 15 |  |  |
| CC(C)Oc1ccc2c(c1)C(=O)/C(=N\Nc1nc3ccccc3s1)C2 [7-74, (Z)-2-(2-(benzo[d]thiazol-2-yl)hydrazineylidene)-6-isopropoxy-2,3-dihydro-1H-inden-1-one] | Positive binding | Specific to 42D at low doses |  | 17 | 6 |  | > 20 |  |  |
| O=C1/C(=N\Nc2nc3ccccc3s2)Cc2cc(C(F)(F)F)ccc21 [7-108] | Positive binding | Specific to 42D cells until 10 μM; also recorded: Specific to 42D cells up to 10 μM |  | > 60 | 68 |  | > 15 |  |  |
| O=C1/C(=N\Nc2nc3ccccc3s2)Cc2cc(N3CCCCC3)ccc21 [7-112] | No binding | Not specific |  | 32 | 26 |  |  |  |  |
| O=C1/C(=N\Nc2nc3ccccc3s2)Cc2cc(N3CCC3)ccc21 [7-113] | No binding | precipitates |  | 15 | 6 |  |  |  |  |
| CN1/C(=N/Nc2nc3ccccc3s2)C(=O)c2ccccc21 [7-114] | No binding | precipitates |  | 44 | 40 |  |  |  |  |
| CN1C(=O)/C(=N/Nc2nc3ccccc3s2)c2ccccc21 [7-115] | No binding | Not specific |  | 7 | 2 |  |  |  |  |
| O=C1/C(=N\Nc2nc3ccccc3s2)Nc2cc(Br)ccc21 [7-116] | No binding | Not specific |  | > 60 | 64 |  |  |  |  |
| CC(C)(C)OC(=O)c1ccc2c(c1)C(=O)/C(=N\Nc1nc3ccccc3s1)C2 [7-119] | No binding | Not specific |  | 27 | 18 |  |  |  |  |
| Nc1ccc2c(c1)C/C(=N/Nc1nc3ccccc3s1)C2=O [7-120] | No binding | Not specific |  | 24 | 17 |  |  |  |  |
| O=C1/C(=N\Nc2nc3ccccc3s2)Cc2cc(O)ccc21 [7-121] | Positive binding | Not specific |  | 36 | 30 |  |  |  |  |
| CC(C)c1ccc2c(c1)C/C(=N/Nc1nc3ccccc3s1)C2=O [7-122] | No binding | Not specific |  | 10 | 1 |  |  |  |  |
| O=C1/C(=N\Nc2nc3ccccc3s2)Nc2cc(F)ccc21 [7-123] | No binding | Not specific |  | 25 | 18 |  |  |  |  |
| O=C1Nc2cc(F)ccc2/C1=N\Nc1nc2ccccc2s1 [7-124] | No binding | Not specific |  | 27 | 21 |  |  |  |  |
| O=C1/C(=N\Nc2nc3ccccc3s2)Cc2c(Cl)cccc21 [7-125] | No binding | specific |  | 44 | 36 |  |  |  |  |
| O=C1/C(=N\Nc2nc3ccccc3s2)Cc2c(F)cccc21 [7-126] | binding | specific |  | 15 | 6 |  |  |  |  |
| CN(C)c1ccc2c(c1)C/C(=N/Nc1nc3ccccc3s1)C2=O [7-127] | No binding | Not specific |  | 23 | 14 |  |  |  |  |
| c1ccc2c(c1)CC/C2=N\Nc1nc2ccccc2s1 [VPC-7] |  | 42D not 16D |  |  |  |  |  | 82.1 | 97.8 |
| c1ccc2c(c1)CC/C2=N\Nc1nc2ccccc2[nH]1 [VPC-8] |  | 42D and 16D non-specific |  |  |  |  |  | 84.5 | 96.1 |
| c1ccc2c(c1)CC/C2=N\Nc1ccc2ccccc2n1 [VPC-39] |  | non-specific |  |  |  |  |  | 99 | 99.9 |

From US20250205204A1, “Transcription Factor Brn2 Inhibitory Compounds for Use as Therapeutics” (The University of British Columbia, priority 2021, published 2025)
